Consider 31 compounds from US10981860B2, “Caspase inhibitor and pharmaceutical composition, use and therapeutic method thereof” (Chia Tai Tianqing Pharmaceutical Group Co., Ltd., priority 2016, dated 2021).

Read-outs that look alike come from different tables or passages of the source.

Series [1] in a line: Mouse pharmacokinetic study (intravenous and oral). In kind it is in vivo. The conditions noted are these: for half-life (in words) / in vivo exposure (in words): Examples compared to reference compound IDN-6556. The text has this: Experimental Example 2: Mouse Pharmacokinetic Study
The mice were randomly divided into two groups (one intravenous group and one oral group) or only oral group, 3 males in each group. The compounds were formulated into the designated preparations. The intravenous preparations should be filtered to provide clear solutions, and the oral preparations can be clear or can be uniform suspensions. All animals in the intravenous group were intravenously injected with the given doses of the compound preparations through tail veins. The oral group was administrated with the given doses of the preparations by gavage.
Whole blood samples were collected from the other side of the tail vein at 8 time points (2 min, 5 min, 15 min, 30 min, 1 h, 2 h, 4 h and 8 h after administration) in the intravenous group, about 25 μL for each sample; whole blood samples were collected from the tail vein at 8 time points (2 min, 5 min, 15 min, 30 min, 1 h, 2 h, 4 h and 8 h after administration) in the oral group, about 25 μL for each sample.
[…] were added to a centrifuge tube containing anticoagulants, and centrifuged at 4° C., 3000 g for 15 min. The supernatant plasma was quickly frozen on dry ice and stored in a ⋅ refrigerator at −70° C.±10° C. until LC-MS/MS analysis was performed.
The concentration data of plasma drug for the compounds were processed with the non-compartmental model using WinNonlin™ Version 6.3.0 (Pharsight, Mountain View, Calif.) pharmacokinetic software. The peak concentration (Cmax), time to peak concentration (Tmax) and last time for quantitative were obtained directly from the blood concentration-time chart.
The following pharmacokinetic parameters were calculated by using Log-linear Trapezoidal method: elimination phase half-life (T1/2); apparent volume of distribution (Vdss) and clearance rate (CL); the average residence time of the drug in vivo from 0 to the last time point (MRT0-last); the average residence time of the drug in vivo from zero time to infinity (MRT0-inf); the area under time-plasma concentration curve from 0 to the last time point (AUC0-last); the area under time-plasma concentration curve from zero time to infinity (AUC0-inf); initial concentration (C0).
For individual plasma concentrations of less than BQL, the concentrations appeared before Tmax were calculated as 0, and the concentrations appeared after Tmax were directly excluded. All parameters and ratios were reported in the forms of three significant digits.
The pharmacokinetic parameters of this experiment were calculated according to the theoretical blood collection times and the theoretical dose concentrations as described in the protocol. The deviations between the actual dose concentrations and the theoretical concentrations were within the range of ±20%. The deviations between the actual blood collection times and the theoretical blood collection times were in conformity with the relevant SOP (the point within 1 hour after administration was within the range of ±1 min, and the others were within 5% of the theoretical time).

Series [2] deals with Anti-Fas-induced Jurkat cells. As to the kind of experiment: Anti-Fas-induced apoptosis of Jurkat cells in vitro (Caspase 3 substrate Ac-DEVD-AMC fluorescence). Conditions: Homo sapiens; Jurkat Clone E6-1, Anti-Fas 50 ng/mL, 24 hours, Ac-DEVD-AMC 10 μM. The class given is cell-based.

`C[C@H](NC(=O)C(=O)Nc1ccccc1C(C)(C)C)C(=O)N[C@@H](CC(=O)O)C(=O)COc1c(F)c(F)cc(F)c1F` [IDN-6556, reference compound]: in series [1], the “half-life (in words)” value is “relatively short” and the “in vivo exposure (in words)” value is reported as “low”. Moreover, in series [1] (intravenous injection 1 mpk), the “Apparent volume of distribution” value came out at 0.82 L/kg, the “Area under the concentration-time curve” value came out at 446 nM·h, the Clearance rate came to 6.36 L/h/kg and the Half-life is 15 min. The Bioavailability in series [1] (male, plasma, 10 mg/kg, oral administration 10 mpk, read-out: Bioavailability) is no more than 4%. Further, in series [1] (oral administration 10 mpk), the “Area under the concentration-time curve” value turned out to be 197 nM·h, the Bioavailability was 4.4%, the Peak concentration came out at 227 nM and the “Time to peak concentration” value came out at 0.25 h.

Consider `O=C(O)C[C@H](NC(=O)C1CCN(C(=O)OC2CCCC2)CC1)C(=O)COc1c(F)c(F)cc(F)c1F` [Example 69], for which, in series [1], the “in vivo exposure (in words)” value was “significantly improved”. Also, in series [1] (oral administration 10 mpk), the “Area under the concentration-time curve” value was 4180 nM·h, the Peak concentration is reported as 1993 nM and the “Time to peak concentration” value amounted to 0.5 h.

Take `O=C(O)C[C@H](NC(=O)C1CCN(C(=O)C2CCCC2)CC1)C(=O)COc1c(F)c(F)cc(F)c1F` [Example 49]: the “in vivo exposure (in words)” value in series [1] is listed as “significantly improved”. Besides, in series [1] (intravenous injection 1 mpk), the “Apparent volume of distribution” value was 0.653 L/kg, the “Area under the concentration-time curve” value was 852 nM·h, the Clearance rate is 2.32 L/h/kg and the Half-life came to 52.2 min. In series [1] (oral administration 10 mpk), the “Area under the concentration-time curve” value stood at 1708 nM·h, the Bioavailability came to 20.1%, the Peak concentration amounted to 405 nM and the “Time to peak concentration” value was determined as 1 h.

As to `O=C(O)C[C@H](NC(=O)C1CCN(C(=O)OCc2ccccc2)CC1)C(=O)COc1c(F)c(F)cc(F)c1F` [Example 71], a half-maximal response in series [2] (EC50) required 0.0293 µM.

In series [2], `O=C(O)C[C@H](NC(=O)[C@@H]1CCCN(C(=O)NC2CCCC2)C1)C(=O)COc1c(F)c(F)cc(F)c1F` [Example 29] yielded a concentration giving a half-maximal response (EC50) of 0.0574 µM. Compared with the last compound, the EC50 is about 2-fold higher.

`O=C(O)C[C@H](NC(=O)C1CCN(S(=O)(=O)c2ccccc2)CC1)C(=O)COc1c(F)c(F)cc(F)c1F` [Example 81] registered a concentration for a half-maximal effect (EC50) in series [2] of 0.959 µM. Against the preceding compound, the EC50 is about 17-fold higher.

In the case of `O=C(O)C[C@H](NC(=O)C1CCN(C(=O)C(=O)Nc2ccc(Cl)cc2C(F)(F)F)CC1)C(=O)COc1c(F)c(F)cc(F)c1F` [Example 60], a half-maximal effect in series [2] (EC50) was put at 0.0496 µM.

In the case of `O=C(O)C[C@H](NC(=O)[C@@H]1CCCN(C(=O)Oc2ccccc2)C1)C(=O)COc1c(F)c(F)cc(F)c1F` [Example 31], the EC50 in series [2] turned out to be 0.0214 µM.

The compound `O=C(O)C[C@H](NC(=O)C1CCN(C(=O)NC2CCCC2)CC1)C(=O)COc1c(F)c(F)cc(F)c1F` [Example 79] yielded an EC50 in series [2] of 0.026 µM.

`O=C(O)C[C@H](NC(=O)C1CCN(C(=O)N2CCCC2)CC1)C(=O)COc1c(F)c(F)cc(F)c1F` [Example 89]: the EC50 in series [2] came out at 0.00898 µM. This EC50 lies about 2.9-fold lower than the previous one.

As to `CC(C)(C)c1ccccc1NC(=O)C(=O)N1CCC(C(=O)N[C@@H](CC(=O)O)C(=O)COc2c(F)c(F)cc(F)c2F)CC1` [Example 7], in series [1], the “half-life (in words)” value is given as “significantly improved” and the “in vivo exposure (in words)” value is “significantly improved”. The “oral bioavailability (in words)” value in series [1] (compared to reference compound IDN-6556) is “significantly improved”. For the same compound, in series [1] (oral administration 10 mpk), the “Area under the concentration-time curve” value came out at 3657 nM·h, the Peak concentration is 1636 nM and the “Time to peak concentration” value is 0.833 h.

`CC(C)(C)c1ccccc1NC(=O)C(=O)N1CCCO[C@@H](C(=O)N[C@@H](CC(=O)O)C(=O)COc2c(F)c(F)cc(F)c2F)C1` [Example 110]: the EC50 in series [2] is 0.383 µM.

As to `O=C(O)C[C@H](NC(=O)C1CCN(c2nc3ccccc3o2)CC1)C(=O)COc1c(F)c(F)cc(F)c1F` [Example 83], in series [2], the response was half-maximal at 0.024 µM (EC50).

`O=C(O)C[C@H](NC(=O)C1CC2CCC(C1)N2C(=O)OCc1ccccc1)C(=O)COc1c(F)c(F)cc(F)c1F` (stereo partly drawn) [Example 14]: the EC50 in series [2] was determined as 0.275 µM.

`Cc1ccc(C)c(CCNC(=O)C(=O)N2CCC(C(=O)N[C@@H](CC(=O)O)C(=O)COc3c(F)c(F)cc(F)c3F)CC2)c1` [Example 94] had a 50% effective concentration (EC50) in series [2] of 0.0439 µM.

In the case of `O=C(O)C[C@H](NC(=O)C1CCN(C(=O)C(=O)Nc2cc(Cl)ccc2Cl)CC1)C(=O)COc1c(F)c(F)cc(F)c1F` [Example 101], in series [2], the midpoint of the response, the EC50, lay at 0.0613 µM. The EC50 values of the last two compounds are within 1.5-fold of each other.

For `CC(C)(C)c1cc(Cl)ccc1NC(=O)C(=O)N1CCC(C(=O)N[C@@H](CC(=O)O)C(=O)COc2c(F)c(F)cc(F)c2F)CC1` [Example 59], the concentration giving a half-maximal response (EC50) in series [2] came out at 0.157 µM. This EC50 is about 2.6-fold higher than that of the compound before.

For `O=C(O)C[C@H](NC(=O)[C@H]1CC[C@H](NC(=O)OCc2ccccc2)CC1)C(=O)COc1c(F)c(F)cc(F)c1F` [Example 25], in series [2], the concentration giving a half-maximal response (EC50) came out at 0.0707 µM.

For the compound `O=C(O)C[C@H](NC(=O)C1CCN(C(=O)OCC(F)(F)F)CC1)C(=O)COc1c(F)c(F)cc(F)c1F` [Example 67], in series [2], the midpoint of the response, the EC50, lay at 0.0146 µM.

With `O=C(O)C[C@H](NC(=O)C1CCN(c2ncc3cc(F)ccc3n2)CC1)C(=O)COc1c(F)c(F)cc(F)c1F` [Example 82], in series [2], it took 0.044 µM to reach a half-maximal effect (EC50).

For `CC(C)(C)c1ccccc1NC(=O)C(=O)N1C[C@H](C(=O)N[C@@H](CC(=O)O)C(=O)COc2c(F)c(F)cc(F)c2F)Cc2ccccc21` [Example 16], in series [2], the EC50 worked out at 0.417 µM.

On to `CC1(C(=O)N[C@@H](CC(=O)O)C(=O)COc2c(F)c(F)cc(F)c2F)CCN(C(=O)C(=O)Nc2ccccc2C(C)(C)C)CC1` [Example 20], for which, in series [2], a half-maximal effect (EC50) was put at 0.698 µM.

In series [2], `O=C(O)C[C@H](NC(=O)[C@@H]1CCCN(C(=O)C2CCCC2)C1)C(=O)COc1c(F)c(F)cc(F)c1F` [Example 26] had a 50% effective concentration (EC50) of 0.0126 µM. This EC50 lies about 55-fold lower than the previous one.

In turn, `CC(C)(C)c1ccccc1NC(=O)C(=O)N1CCOC[C@@H](C(=O)N[C@@H](CC(=O)O)C(=O)COc2c(F)c(F)cc(F)c2F)C1` [Example 123] registered a concentration for a half-maximal effect (EC50) in series [2] of 0.0389 µM.

In series [2], `CC(C)(C)c1ccccc1NC(=O)C(=O)N1CCCC[C@](C)(C(=O)N[C@@H](CC(=O)O)C(=O)COc2c(F)c(F)cc(F)c2F)C1` [Example 111] showed an EC50 of 0.023 µM.

As to `O=C(O)C[C@H](NC(=O)[C@H]1COCCN(C(=O)C(=O)Nc2ccccc2Cl)C1)C(=O)COc1c(F)c(F)cc(F)c1F` [Example 129], in series [2], the response was half-maximal at 0.00565 µM (EC50).

As for `O=C(O)C[C@H](NC(=O)[C@@H]1CCCCN(C(=O)c2noc3ccccc23)C1)C(=O)COc1c(F)c(F)cc(F)c1F` [Example 122], the EC50 in series [2] came out at 0.0058 µM.

In series [2], `CC(C)(C)c1ccccc1NC(=O)C(=O)N1CCC(F)(C(=O)N[C@@H](CC(=O)O)C(=O)COc2c(F)c(F)cc(F)c2F)CC1` [Example 21] registered an EC50 of 0.0979 µM.

Regarding `CC(C)(C)c1ccccc1NC(=O)C(=O)N1CCCC[C@@H](C(=O)N[C@@H](CC(=O)O)C(=O)COc2c(F)c(F)cc(F)c2F)C1` (single isomer, unassigned) [Example 10], the response in series [2] was half-maximal at 0.0416 µM (EC50).

The compound `O=C(O)C[C@H](NC(=O)C1CCN(C(=O)C(=O)NCCC2CCCC2)CC1)C(=O)COc1c(F)c(F)cc(F)c1F` [Example 62] had an EC50 in series [2] of 0.0424 µM.

In turn, `O=C(O)C[C@H](NC(=O)C1CCN(c2noc3ccccc23)CC1)C(=O)COc1c(F)c(F)cc(F)c1F` [Example 84] had a 50% effective concentration (EC50) in series [2] of 0.035 µM.
